Assay results published in patent US9399656B2, “Compound, method for producing same, and use of same” (Microbial Chemistry Research Foundation, priority 2011, dated 2016).

Experiments:
Format in all cases: cell-based, human
SW982 cell = test: Cytotoxicity test (Cell Counting Kit-8, cell proliferation rate); details: SW982 cells, 48 hours
Experimental: The compound represented by the Structural Formula (A) was evaluated for cytotoxicity as follows.
A SW982 cell (purchased from ATCC) at 2×10^3 cells/well was prepared with DMEM/F12 medium (manufactured by Thermo Fisher Scientific) containing 10% fetal bovine serum (manufactured by Nichirei Corporation), followed by inoculating into a 96-well culture plate so that each well contained 0.1 mL. At the same time, the test substance produced in Production Example 1 (the compound represented by the Structural Formula (A)) was added to each well at a concentration described in the following Table 1, followed by incubating for 48 hours under a condition of 37° C. and 5% CO2. After the incubation for 48 hours, 10 μL of a cytometric kit (CELL COUNTING KIT-8, manufactured by DOJINDO LABORATORIES) was added to the each well, followed by incubating for 2 hours. Then, an absorbance at 450 nm G was measured.
The cytometric kit allows living cells to develop a color. Accordingly, the higher absorbance at 450 nm is, the larger the number of living cells is, that is, cell proliferation is not affected. Therefore, based on the measurement result of absorbance in the each well, a cell proliferation rate was calculated according to the following Expression (3) to thereby evaluate an influence upon the cell proliferation: Cell proliferation rate (%)=G/H×100 Expression (3)
G denotes an absorbance at 450 nm in the system containing the test substance, and
H denotes an absorbance at 450 nm in the system containing no test substance (i.e., at a concentration of 0 nM in the following Table 1).

[1] = test system: PGE2 production in SW982 cell; test: PGE2 production inhibitory action in bradykinin-stimulated SW982 cells (HTRF kit); details: bradykinin 1 nM, 30 min, test substance 2 to 10,000 ng/mL, FIG. 5
Experimental: The compound represented by the Structural Formula (A) was evaluated for a PGE2 production inhibitory action as follows.
A SW982 cell which is a human […] cell line (purchased from ATCC (American Type Culture Collection)) was suspended into DMEM/F12 (Dulbecco's Modified Eagle Medium: Nutrient Mixture F-12, manufactured by Thermo Fisher Scientific) containing 10% fetal bovine serum (manufactured by Nichirei Corporation), followed by inoculating into a 96-well culture plate at 1×10^4 cells/well and incubating overnight.
After the incubation overnight, the medium in the 96-well culture plate containing the SW982 cells was replaced with HEPES-HANKS buffer (manufactured by NISSUI PHARMACEUTICAL CO., LTD.). […] After incubating for 30 min, a culture supernatant was collected, followed by measuring a PGE2 concentration A in the culture supernatant using a kit based on a HTRF (Homogeneous Time-Resolved Fluorescence) method (62P2APEB, manufactured by Cisbio Bioassays).
As a negative control, a PGE2 concentration B was measured in the same manner as in the measurement of the PGE2 concentration in the system containing the test substance, except that neither the test substance nor bradykinin (inflammatory stimulating agent) was added. […]

[2] = test system: PGI2 production in SW982 cell; test: PGI2 production inhibitory action (6-keto-PGF1α enzyme immunoassay) in bradykinin-stimulated SW982 cells; details: bradykinin 1 nM, 30 min, test substance 14 to 10,000 ng/mL, FIG. 5
Experimental: The compound represented by the Structural Formula (A) was evaluated for a PGI2 production inhibitory action as follows. PGI2 is metabolized to 6-keto-PGF1α (6-keto-prostaglandin F1α) which is a stabilized metabolite. Therefore, a concentration of PGI2 produced can be determined by measuring a concentration of 6-keto-PGF1α.
A SW982 cell which is human […] cell line (purchased from ATCC) was suspended into DMEM/F12 (manufactured by Thermo Fisher Scientific) containing 10% fetal bovine serum (manufactured by Biowest), followed by inoculating into a 96-well culture plate at 1×10^4 cells/well and incubating overnight. […]
As a negative control, a 6-keto-PGF1α concentration E was measured in the same manner as in the measurement of the 6-keto-PGF1α concentration in the system containing the test substance, except that neither the test substance nor bradykinin (inflammatory stimulating agent) was added.
As a positive control, a 6-keto-PGF1α concentration F was measured in the same manner as in the measurement of the 6-keto-PGF1α concentration in the system containing the test substance, except that the test substance was not added.
Based on the measurement result of 6-keto-PGF1α concentration in the each well, a 6-keto-PGF1α production rate was calculated according to the following Expression (2): 6-keto-PGF1α production rate (%)=(D−E)/(F−E)×100 Expression (2) […]

COC1=C(C)C(=O)c2ccc(OC3OC(C)C(O)C(O)C3O)c(NNC(C)=O)c2C1=O (stereo not shown) [Structural Formula (A)]
Cell proliferation rate (%) (SW982 cell; concentration 111 nM): 100%
Cell proliferation rate (%) (SW982 cell; concentration 333 nM): 103%
Cell proliferation rate (%) (SW982 cell; concentration 10,000 nM): 111%
Cell proliferation rate (%) (SW982 cell; concentration 30,000 nM): 95%
Effect on cell proliferation of the SW982 cell (SW982 cell; up to 30,000 nM (Table 1)): not to affect cell proliferation
PGE2 production rate [1]: decreased
6-keto-PGF1α production rate [2]: decreased
